The data set deals with MDR1A (P-glycoprotein, ABCB1) (Mus musculus, UniProt P21447). Put plainly: Activity of mouse MDR1A expressed in pig LLC-PK1 cells assessed as efflux ratio of permeability from basolateral to apical side to apical to basolateral side at 1 uM after 2 hrs. The format is ADME, cell-based.

Molecules are shown by their SMILES.

The values that follow come from ChEMBL document CHEMBL3525917, “Species difference in the mechanism of nonlinear pharmacokinetics of E2074, a novel sodium channel inhibitor, in rats, dogs, and monkeys” (Drug Metab Dispos, 2013).

Chain of MDR1A (P-glycoprotein, ABCB1) (P21447 whole entry): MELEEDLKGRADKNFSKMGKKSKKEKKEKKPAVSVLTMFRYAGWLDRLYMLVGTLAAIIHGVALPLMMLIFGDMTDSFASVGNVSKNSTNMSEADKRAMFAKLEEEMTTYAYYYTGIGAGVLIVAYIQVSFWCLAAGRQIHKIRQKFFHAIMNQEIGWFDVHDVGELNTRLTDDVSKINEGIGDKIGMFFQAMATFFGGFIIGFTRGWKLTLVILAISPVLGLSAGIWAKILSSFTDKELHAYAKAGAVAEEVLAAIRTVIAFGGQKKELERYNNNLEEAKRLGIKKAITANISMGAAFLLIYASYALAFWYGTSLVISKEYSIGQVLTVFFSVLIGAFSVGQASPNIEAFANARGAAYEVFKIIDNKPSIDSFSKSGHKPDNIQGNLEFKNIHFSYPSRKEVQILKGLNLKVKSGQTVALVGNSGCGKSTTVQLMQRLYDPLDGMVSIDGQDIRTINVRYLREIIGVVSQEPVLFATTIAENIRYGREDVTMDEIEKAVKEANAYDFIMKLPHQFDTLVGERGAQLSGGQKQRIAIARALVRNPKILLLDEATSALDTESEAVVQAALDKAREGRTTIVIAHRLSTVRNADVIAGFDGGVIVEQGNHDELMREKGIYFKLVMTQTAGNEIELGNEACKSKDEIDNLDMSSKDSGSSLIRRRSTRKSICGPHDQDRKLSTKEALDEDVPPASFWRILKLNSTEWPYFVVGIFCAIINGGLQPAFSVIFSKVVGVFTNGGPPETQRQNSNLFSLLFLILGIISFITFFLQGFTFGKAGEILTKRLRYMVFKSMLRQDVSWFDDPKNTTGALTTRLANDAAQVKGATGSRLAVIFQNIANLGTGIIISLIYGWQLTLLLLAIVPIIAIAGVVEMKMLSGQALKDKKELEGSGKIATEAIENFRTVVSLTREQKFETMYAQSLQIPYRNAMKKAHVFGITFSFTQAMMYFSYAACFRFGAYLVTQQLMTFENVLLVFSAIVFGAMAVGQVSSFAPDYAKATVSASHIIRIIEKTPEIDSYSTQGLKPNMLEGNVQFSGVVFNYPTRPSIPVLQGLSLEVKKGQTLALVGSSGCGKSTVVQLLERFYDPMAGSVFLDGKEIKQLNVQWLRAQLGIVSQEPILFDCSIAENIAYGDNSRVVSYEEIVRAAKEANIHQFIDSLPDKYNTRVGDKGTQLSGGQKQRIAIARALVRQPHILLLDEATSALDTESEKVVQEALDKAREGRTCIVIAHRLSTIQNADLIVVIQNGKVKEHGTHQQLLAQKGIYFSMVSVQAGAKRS

As for `CN(C)C(=O)C(CCN1CCC(O)(c2ccc(Cl)cc2)CC1)(c1ccccc1)c1ccccc1.Cl` [LOPERAMIDE HYDROCHLORIDE], the efflux ratio at 2 h, 1 µM stood at 9.
